system: Staphylococcus aureus; assay: Antimicrobial activity against methicillin-sensitive Staphylococcus aureus […] assessed as inhibition of microbial growth incubated for 14 days in biotin-deficient GAST medium by broth microdilution assay; format: functional; conditions: 336 h, time 14 day

Compound	MIC50 [µM]
Nc1ncnc2c1ncn2[C@@H]1O[C@H](CNS(=O)(=O)[N-]C(=O)CCCC[C@@H]2SC[C@@H]3NC(=O)N[C@@H]32)[C@@H](O)[C@H]1O.[Na+]	0.21
Nc1cccc2c1ncn2[C@@H]1O[C@H](CNS(=O)(=O)NC(=O)CCCC[C@@H]2SC[C@@H]3NC(=O)N[C@@H]32)[C@@H](O)[C@H]1O	> 30
Nc1ncnc2c1ncn2[C@@H]1O[C@H](CNS(=O)(=O)NC(=S)NCCCC[C@@H]2SC[C@@H]3NC(=O)N[C@@H]32)[C@@H](O)[C@H]1O	28.7
Nc1ncnc2c1ncn2[C@@H]1O[C@H](CNS(=O)(=O)[N-]C(=O)NCCC[C@@H]2SC[C@@H]3NC(=O)N[C@@H]32)[C@@H](O)[C@H]1O.[Na+]	0.2

system: not listed separately; assay: Drug metabolism in female CD-1 mouse assessed as AUC (0 to 24 hrs) of adenosine-5-sulfamide metabolite at 5 mg/kg, iv administered […] measured after 24 hrs by LC-MS/MS analysis; format: ADME, organism-based; conditions: in vivo

Compound	AUC [ng·h/mL]
Nc1ncnc2c1ncn2[C@@H]1O[C@H](CNS(=O)(=O)[N-]C(=O)CCCC[C@@H]2SC[C@@H]3NC(=O)N[C@@H]32)[C@@H](O)[C@H]1O.[Na+]	782
Nc1ncnc2c1ncn2[C@@H]1O[C@H](CNS(=O)(=O)[N-]C(=O)NCCC[C@@H]2SC[C@@H]3NC(=O)N[C@@H]32)[C@@H](O)[C@H]1O.[Na+]	32

molecular target: T1, Biotin--[acetyl-CoA-carboxylase] ligase (Mycobacterium tuberculosis (strain ATCC 25618 / H37Rv), UniProt I6YFP0); assay: Binding affinity to Mycobacterium tuberculosis BPL assessed as dissociation constant by isothermal titration calorimetry; conditions: not given
T1 sequence (I6YFP0 whole entry): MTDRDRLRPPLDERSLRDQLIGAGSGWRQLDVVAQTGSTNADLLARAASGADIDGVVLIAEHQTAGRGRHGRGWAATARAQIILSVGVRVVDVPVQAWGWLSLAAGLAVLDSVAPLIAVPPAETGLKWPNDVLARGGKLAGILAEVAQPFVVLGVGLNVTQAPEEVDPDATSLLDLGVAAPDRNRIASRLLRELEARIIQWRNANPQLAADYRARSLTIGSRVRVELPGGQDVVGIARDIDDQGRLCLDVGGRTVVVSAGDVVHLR

Compound	Kd [nM]
Nc1cccc2c1ncn2[C@@H]1O[C@H](CNS(=O)(=O)NC(=O)CCCC[C@@H]2SC[C@@H]3NC(=O)N[C@@H]32)[C@@H](O)[C@H]1O	220
Nc1ncnc2c1ncn2[C@@H]1O[C@H](CNS(=O)(=O)NC(=S)NCCCC[C@@H]2SC[C@@H]3NC(=O)N[C@@H]32)[C@@H](O)[C@H]1O	60

system: Staphylococcus aureus; assay: Antimicrobial activity against methicillin-resistant Staphylococcus aureus FPR3757 assessed as inhibition of microbial growth incubated for 14 days in biotin-deficient GAST medium by broth microdilution assay; format: functional; conditions: FPR3757, 336 h, time 14 day

Compound	MIC50 [µM]
Nc1ncnc2c1ncn2[C@@H]1O[C@H](CNS(=O)(=O)[N-]C(=O)CCCC[C@@H]2SC[C@@H]3NC(=O)N[C@@H]32)[C@@H](O)[C@H]1O.[Na+]	0.02
Nc1cccc2c1ncn2[C@@H]1O[C@H](CNS(=O)(=O)NC(=O)CCCC[C@@H]2SC[C@@H]3NC(=O)N[C@@H]32)[C@@H](O)[C@H]1O	> 30
Nc1ncnc2c1ncn2[C@@H]1O[C@H](CNS(=O)(=O)NC(=S)NCCCC[C@@H]2SC[C@@H]3NC(=O)N[C@@H]32)[C@@H](O)[C@H]1O	7.2
Nc1ncnc2c1ncn2[C@@H]1O[C@H](CNS(=O)(=O)[N-]C(=O)NCCC[C@@H]2SC[C@@H]3NC(=O)N[C@@H]32)[C@@H](O)[C@H]1O.[Na+]	0.2

system: not listed separately; assay: AUC (0 to 24 hrs) in female CD-1 mouse at 5 mg/kg, iv administered […] measured after 24 hrs by LC-MS/MS analysis; format: ADME, organism-based; conditions: in vivo

Compound	AUC(0-t) at 24 h [ng·h/mL]
Nc1ncnc2c1ncn2[C@@H]1O[C@H](CNS(=O)(=O)[N-]C(=O)CCCC[C@@H]2SC[C@@H]3NC(=O)N[C@@H]32)[C@@H](O)[C@H]1O.[Na+]	1450
Nc1ncnc2c1ncn2[C@@H]1O[C@H](CNS(=O)(=O)[N-]C(=O)NCCC[C@@H]2SC[C@@H]3NC(=O)N[C@@H]32)[C@@H](O)[C@H]1O.[Na+]	11200

molecular target: T2, Biotin--[acetyl-CoA-carboxylase] ligase (Mycobacterium tuberculosis (strain ATCC 25618 / H37Rv)) (UniProt I6YFP0); assay: Binding affinity to Mycobacterium tuberculosis BPL assessed as change in entropy by isothermal titration calorimetry; conditions: not given
T2 sequence (whole entry): T1 sequence (I6YFP0 whole entry)

Compound	TdeltaS [kcal/mol]
Nc1ncnc2c1ncn2[C@@H]1O[C@H](CNS(=O)(=O)[N-]C(=O)CCCC[C@@H]2SC[C@@H]3NC(=O)N[C@@H]32)[C@@H](O)[C@H]1O.[Na+]	6.6
Nc1cccc2c1ncn2[C@@H]1O[C@H](CNS(=O)(=O)NC(=O)CCCC[C@@H]2SC[C@@H]3NC(=O)N[C@@H]32)[C@@H](O)[C@H]1O	4.5
Nc1ncnc2c1ncn2[C@@H]1O[C@H](CNS(=O)(=O)NC(=S)NCCCC[C@@H]2SC[C@@H]3NC(=O)N[C@@H]32)[C@@H](O)[C@H]1O	4.3
Nc1ncnc2c1ncn2[C@@H]1O[C@H](CNS(=O)(=O)[N-]C(=O)NCCC[C@@H]2SC[C@@H]3NC(=O)N[C@@H]32)[C@@H](O)[C@H]1O.[Na+]	0.5

molecular target: T2, Biotin--[acetyl-CoA-carboxylase] ligase (Mycobacterium tuberculosis (strain ATCC 25618 / H37Rv)); assay: Binding affinity to Mycobacterium tuberculosis BPL assessed as change in gibbs free energy by isothermal titration calorimetry; conditions: not given

Compound	deltaG [kcal/mol]
Nc1ncnc2c1ncn2[C@@H]1O[C@H](CNS(=O)(=O)[N-]C(=O)CCCC[C@@H]2SC[C@@H]3NC(=O)N[C@@H]32)[C@@H](O)[C@H]1O.[Na+]	-12.4
Nc1cccc2c1ncn2[C@@H]1O[C@H](CNS(=O)(=O)NC(=O)CCCC[C@@H]2SC[C@@H]3NC(=O)N[C@@H]32)[C@@H](O)[C@H]1O	-9.4
Nc1ncnc2c1ncn2[C@@H]1O[C@H](CNS(=O)(=O)NC(=S)NCCCC[C@@H]2SC[C@@H]3NC(=O)N[C@@H]32)[C@@H](O)[C@H]1O	-9.9

system: not listed separately; assay: Hepatic clearance in female CD-1 mouse at 5 mg/kg, iv administered […] measured after 24 hrs by LC-MS/MS analysis; format: ADME, organism-based; conditions: in vivo

Compound	CLH [mL/min/kg]
Nc1ncnc2c1ncn2[C@@H]1O[C@H](CNS(=O)(=O)[N-]C(=O)CCCC[C@@H]2SC[C@@H]3NC(=O)N[C@@H]32)[C@@H](O)[C@H]1O.[Na+]	22.5

system: Mycobacterium tuberculosis; assay: Antimicrobial activity against wild type Mycobacterium tuberculosis H37Rv assessed as inhibition of microbial growth incubated for 14 days in biotin-deficient GAST medium by broth microdilution assay; format: functional; conditions: 336 h, time 14 day

Compound	MIC50 [µM]
Nc1ncnc2c1ncn2[C@@H]1O[C@H](CNS(=O)(=O)[N-]C(=O)CCCC[C@@H]2SC[C@@H]3NC(=O)N[C@@H]32)[C@@H](O)[C@H]1O.[Na+]	2.2
Nc1cccc2c1ncn2[C@@H]1O[C@H](CNS(=O)(=O)NC(=O)CCCC[C@@H]2SC[C@@H]3NC(=O)N[C@@H]32)[C@@H](O)[C@H]1O	> 100
Nc1ncnc2c1ncn2[C@@H]1O[C@H](CNS(=O)(=O)NC(=S)NCCCC[C@@H]2SC[C@@H]3NC(=O)N[C@@H]32)[C@@H](O)[C@H]1O	> 100
Nc1ncnc2c1ncn2[C@@H]1O[C@H](CNS(=O)(=O)[N-]C(=O)NCCC[C@@H]2SC[C@@H]3NC(=O)N[C@@H]32)[C@@H](O)[C@H]1O.[Na+]	20

system: not listed separately; assay: Renal clearance in female CD-1 mouse at 5 mg/kg, iv administered […] measured after 24 hrs by LC-MS/MS analysis; format: ADME, organism-based; conditions: in vivo

Compound	CL renal at 24 h [mL/min/kg]
Nc1ncnc2c1ncn2[C@@H]1O[C@H](CNS(=O)(=O)[N-]C(=O)CCCC[C@@H]2SC[C@@H]3NC(=O)N[C@@H]32)[C@@H](O)[C@H]1O.[Na+]	22.5

system: not listed separately; assay: Half life in female CD-1 mouse at 5 mg/kg, iv administered […] measured after 24 hrs by LC-MS/MS analysis; format: ADME, organism-based; conditions: in vivo

Compound	half-life [min]
Nc1ncnc2c1ncn2[C@@H]1O[C@H](CNS(=O)(=O)[N-]C(=O)CCCC[C@@H]2SC[C@@H]3NC(=O)N[C@@H]32)[C@@H](O)[C@H]1O.[Na+]	11
Nc1ncnc2c1ncn2[C@@H]1O[C@H](CNS(=O)(=O)[N-]C(=O)NCCC[C@@H]2SC[C@@H]3NC(=O)N[C@@H]32)[C@@H](O)[C@H]1O.[Na+]	42

molecular target: T2, Biotin--[acetyl-CoA-carboxylase] ligase (Mycobacterium tuberculosis (strain ATCC 25618 / H37Rv)); assay: Binding affinity to Mycobacterium tuberculosis BPL assessed as change in enthalpy by isothermal titration calorimetry; conditions: not given

Compound	deltaH [kcal/mol]
Nc1ncnc2c1ncn2[C@@H]1O[C@H](CNS(=O)(=O)[N-]C(=O)CCCC[C@@H]2SC[C@@H]3NC(=O)N[C@@H]32)[C@@H](O)[C@H]1O.[Na+]	-18.9
Nc1cccc2c1ncn2[C@@H]1O[C@H](CNS(=O)(=O)NC(=O)CCCC[C@@H]2SC[C@@H]3NC(=O)N[C@@H]32)[C@@H](O)[C@H]1O	-13.9
Nc1ncnc2c1ncn2[C@@H]1O[C@H](CNS(=O)(=O)NC(=S)NCCCC[C@@H]2SC[C@@H]3NC(=O)N[C@@H]32)[C@@H](O)[C@H]1O	-14.2

system: not listed separately; assay: Clearance in female CD-1 mouse at 5 mg/kg, iv administered […] measured after 24 hrs by LC-MS/MS analysis; format: ADME, organism-based; conditions: in vivo

Compound	clearance [mL/min/kg]
Nc1ncnc2c1ncn2[C@@H]1O[C@H](CNS(=O)(=O)[N-]C(=O)CCCC[C@@H]2SC[C@@H]3NC(=O)N[C@@H]32)[C@@H](O)[C@H]1O.[Na+]	58
Nc1ncnc2c1ncn2[C@@H]1O[C@H](CNS(=O)(=O)[N-]C(=O)NCCC[C@@H]2SC[C@@H]3NC(=O)N[C@@H]32)[C@@H](O)[C@H]1O.[Na+]	7

system: HepG2; assay: Cytotoxicity against human HepG2 cells assessed as inhibition of cell viability preincubated for 24 hrs and measured after 4 hrs by XTT assay; format: functional, cell-based; conditions: not given

Compound	IC50 [nM]
Nc1ncnc2c1ncn2[C@@H]1O[C@H](CNS(=O)(=O)[N-]C(=O)NCCC[C@@H]2SC[C@@H]3NC(=O)N[C@@H]32)[C@@H](O)[C@H]1O.[Na+]	> 100000

system: not listed separately; assay: Volume of distribution in female CD-1 mouse at 5 mg/kg, iv administered […] measured after 24 hrs by LC-MS/MS analysis; format: ADME, organism-based; conditions: in vivo

Compound	Vd [L/kg]
Nc1ncnc2c1ncn2[C@@H]1O[C@H](CNS(=O)(=O)[N-]C(=O)CCCC[C@@H]2SC[C@@H]3NC(=O)N[C@@H]32)[C@@H](O)[C@H]1O.[Na+]	0.94
Nc1ncnc2c1ncn2[C@@H]1O[C@H](CNS(=O)(=O)[N-]C(=O)NCCC[C@@H]2SC[C@@H]3NC(=O)N[C@@H]32)[C@@H](O)[C@H]1O.[Na+]	0.45
